# Data from patent US6355799B1, “Substituted benzene compounds, process for their preparation, and herbicidal and defoliant compositions containing them” (ISK Americas Incorporated, priority 1997, dated 2002).
# Tests used:
# Type in all cases: in vivo
# [1] = tested on: field corn (Zea mays L., var. Dekalb 535, CORN); assay: Post-emerge test, crop safety; settings: post-emerge, crop damage rating 0-100 at 14 days after application
# Summary of the method: (§1)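 Plants grown in 10 cm pots of sandy loam mix received acetone-dissolved compounds through a moving flat-fan nozzle. Doses ranged from 15 to 1000 g ai/ha. Pre-emerge pots were seeded one day earlier, post-emerge pots 8–21 days earlier. Fourteen days on, each pot was graded 0–100 for damage.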
# [2] = tested on: upland rice (Oryza sp., var. Tebonnet, RICE); assay: Post-emerge test, crop safety; settings: post-emerge, crop damage rating 0-100 at 14 days after application
# Summary of the method: as §1
# [3] = tested on: barnyardgrass (Echinochloa crus-galli, ECHCG); assay: Pre-emerge test, greenhouse herbicide activity screening; settings: pre-emerge, phytotoxicity rating 0-100 at 14 days after application
# Summary of the method: (§2)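 Rating: 0–100 visual injury, 14 DAA. Application: acetone, 187 l/ha, 15–1000 g ai/ha, flat-fan track sprayer with nozzle 40–45 cm above soil or canopy. Post-emerge runs used 0.25% v/v surfactant on 2–3 leaf plants.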
# [4] = tested on: lambsquarters (Chenopodium album, CHEAL); assay: as above; settings: pre-emerge, phytotoxicity rating 0-100 at 14 days after application
# Summary of the method: as §2
# [5] = tested on: velvetleaf (Abutilon theophrasti, ABUTH); assay: as above; settings: pre-emerge, phytotoxicity rating 0-100 at 14 days after application
# Summary of the method: as §2
# [6] = tested on: ivyleaf morningglory (Ipomoea hederacea, IPOHE); assay: as above; settings: pre-emerge, phytotoxicity rating 0-100 at 14 days after application
# Summary of the method: as §2
# [7] = tested on: johnsongrass (Sorghum halepense, SORHA); assay: as above; settings: pre-emerge, phytotoxicity rating 0-100 at 14 days after application
# Summary of the method: as §2
# [8] = tested on: large crabgrass (Digitaria sanguinalis, DIGSA); assay: as above; settings: pre-emerge, phytotoxicity rating 0-100 at 14 days after application
# Summary of the method: as §2
# [9] = tested on: green foxtail (Setaria viridis, SETVI); assay: as above; settings: pre-emerge, phytotoxicity rating 0-100 at 14 days after application
# Summary of the method: as §2
# [10] = tested on: sicklepod (Cassia obtusifolia, CASOB); assay: as above; settings: pre-emerge, phytotoxicity rating 0-100 at 14 days after application
# Summary of the method: as §2
# [11] = tested on: redroot pigweed (Amaranthus retroflexus, AMARE); assay: as above; settings: pre-emerge, phytotoxicity rating 0-100 at 14 days after application
# Summary of the method: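 Visual ratings on a 0-100 scale (0 no damage, 100 all plants dead) were taken at 14 days after treatment. Rates of 15-1000 g ai/ha in acetone, 187 l/ha, were sprayed onto soil one day after planting (pre-emerge) or onto 2-3 leaf plants with 0.25% v/v surfactant (post-emerge).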
# [12] = tested on: field corn (Zea mays L., var. Dekalb 535, CORN); assay: Pre-emerge test, crop safety; settings: crop damage, pre-emerge, phytotoxicity rating 0-100 at 14 days after application
# Summary of the method: (§3)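 Fourteen days after spraying, crop and weed injury was graded visually from 0, no effect, to 100, every plant dead. Test substances were dissolved in acetone and applied at 15–1000 g ai/ha with a flat-fan nozzle. Application was either pre-emergence, one day after sowing, or post-emergence at the 2–3 leaf stage.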
# [13] = tested on: upland rice (Oryza sp., var. Tebonnet, RICE); assay: Pre-emerge test, crop safety; settings: crop damage, pre-emerge, phytotoxicity rating 0-100 at 14 days after application
# Summary of the method: as §3
# [14] = tested on: barnyardgrass (Echinochloa crus-galli, ECHCG); assay: Post-emerge test, greenhouse herbicide activity screening; settings: post-emerge, phytotoxicity rating 0-100 at 14 days after application
# Summary of the method: (§4)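 Applied at 15–1000 g ai/ha from acetone in 187 l/ha spray volume. Post-emergence applications included 0.25% v/v non-ionic surfactant and reached plants sown 8–21 days before. Pre-emergence applications were incorporated by surface watering. Efficacy or crop damage was rated on a 0–100 scale after 14 days.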
# [15] = tested on: lambsquarters (Chenopodium album, CHEAL); assay: as above; settings: post-emerge, phytotoxicity rating 0-100 at 14 days after application
# Summary of the method: as §4
# [16] = tested on: velvetleaf (Abutilon theophrasti, ABUTH); assay: as above; settings: post-emerge, phytotoxicity rating 0-100 at 14 days after application
# Summary of the method: as §4
# [17] = tested on: ivyleaf morningglory (Ipomoea hederacea, IPOHE); assay: as above; settings: post-emerge, phytotoxicity rating 0-100 at 14 days after application
# Summary of the method: as §4
# [18] = tested on: johnsongrass (Sorghum halepense, SORHA); assay: as above; settings: post-emerge, phytotoxicity rating 0-100 at 14 days after application
# Summary of the method: as §4
# [19] = tested on: large crabgrass (Digitaria sanguinalis, DIGSA); assay: as above; settings: post-emerge, phytotoxicity rating 0-100 at 14 days after application
# Summary of the method: as §4
# [20] = tested on: green foxtail (Setaria viridis, SETVI); assay: as above; settings: post-emerge, phytotoxicity rating 0-100 at 14 days after application
# Summary of the method: as §4
# [21] = tested on: redroot pigweed (Amaranthus retroflexus, AMARE); assay: as above; settings: post-emerge, phytotoxicity rating 0-100 at 14 days after application
# Summary of the method: as §4
# [22] = tested on: sicklepod (Cassia obtusifolia, CASOB); assay: as above; settings: post-emerge, phytotoxicity rating 0-100 at 14 days after application
# Summary of the method: as §4
compound,measurement,setting,value
C=Cc1ccc(C(=O)Nc2c(OC)c(Cl)cc(F)c2N2C(=O)C3=C(CCCC3)C2=O)cc1 [8-30],Post-emerge Herbicidal Activity CORN,[1]; 63 g ai/ha,10
same,Post-emerge Herbicidal Activity CORN,[1]; 250 g ai/ha,15
same,Post-emerge Herbicidal Activity RICE,[2]; 63 g ai/ha,40
same,Post-emerge Herbicidal Activity RICE,[2]; 250 g ai/ha,35
same,Pre-emerge Herbicidal Activity ECHCG,[3]; rate 63 g ai/ha,0
same,Pre-emerge Herbicidal Activity ECHCG,[3]; rate 250 g ai/ha,20
same,Pre-emerge Herbicidal Activity CHEAL,[4]; rate 63 g ai/ha,100
same,Pre-emerge Herbicidal Activity CHEAL,[4]; rate 250 g ai/ha,100
same,Pre-emerge Herbicidal Activity ABUTH,[5]; rate 63 g ai/ha,70
same,Pre-emerge Herbicidal Activity ABUTH,[5]; rate 250 g ai/ha,90
same,Pre-emerge Herbicidal Activity IPOHE,[6]; rate 63 g ai/ha,20
same,Pre-emerge Herbicidal Activity IPOHE,[6]; rate 250 g ai/ha,10
same,Pre-emerge Herbicidal Activity SORHA,[7]; rate 63 g ai/ha,0
same,Pre-emerge Herbicidal Activity SORHA,[7]; rate 250 g ai/ha,30
same,Pre-emerge Herbicidal Activity DIGSA,[8]; rate 63 g ai/ha,30
same,Pre-emerge Herbicidal Activity DIGSA,[8]; rate 250 g ai/ha,50
same,Pre-emerge Herbicidal Activity SETVI,[9]; rate 63 g ai/ha,20
same,Pre-emerge Herbicidal Activity SETVI,[9]; rate 250 g ai/ha,70
same,Pre-emerge Herbicidal Activity CASOB,[10]; rate 63 g ai/ha,20
same,Pre-emerge Herbicidal Activity CASOB,[10]; rate 250 g ai/ha,20
same,Pre-emerge Herbicidal Activity AMARE,[11]; rate 63 g ai/ha,100
same,Pre-emerge Herbicidal Activity AMARE,[11]; rate 250 g ai/ha,100
same,Pre-emerge Herbicidal Activity CORN,[12]; rate 63 g ai/ha,0
same,Pre-emerge Herbicidal Activity CORN,[12]; rate 250 g ai/ha,5
same,Pre-emerge Herbicidal Activity RICE,[13]; rate 63 g ai/ha,5
same,Pre-emerge Herbicidal Activity RICE,[13]; rate 250 g ai/ha,10
same,Post-emerge Herbicidal Activity ECHCG,[14]; 63 g ai/ha,30
same,Post-emerge Herbicidal Activity ECHCG,[14]; 250 g ai/ha,70
same,Post-emerge Herbicidal Activity CHEAL,[15]; 63 g ai/ha,100
same,Post-emerge Herbicidal Activity CHEAL,[15]; 250 g ai/ha,100
same,Post-emerge Herbicidal Activity ABUTH,[16]; 63 g ai/ha,100
same,Post-emerge Herbicidal Activity ABUTH,[16]; 250 g ai/ha,100
same,Post-emerge Herbicidal Activity IPOHE,[17]; 63 g ai/ha,100
same,Post-emerge Herbicidal Activity IPOHE,[17]; 250 g ai/ha,100
same,Post-emerge Herbicidal Activity SORHA,[18]; 63 g ai/ha,30
same,Post-emerge Herbicidal Activity SORHA,[18]; 250 g ai/ha,50
same,Post-emerge Herbicidal Activity DIGSA,[19]; 63 g ai/ha,20
same,Post-emerge Herbicidal Activity DIGSA,[19]; 250 g ai/ha,40
same,Post-emerge Herbicidal Activity SETVI,[20]; 63 g ai/ha,40
same,Post-emerge Herbicidal Activity SETVI,[20]; 250 g ai/ha,70
same,Post-emerge Herbicidal Activity AMARE,[21]; 63 g ai/ha,100
same,Post-emerge Herbicidal Activity AMARE,[21]; 250 g ai/ha,100
same,Post-emerge Herbicidal Activity CASOB,[22]; 63 g ai/ha,80
same,Post-emerge Herbicidal Activity CASOB,[22]; 250 g ai/ha,100
O=C(Nc1cc(Cl)ccc1N1C(=O)C2=C(CCCC2)C1=O)c1ccc2ccccc2c1 [8-36],Post-emerge Herbicidal Activity CORN,[1]; 63 g ai/ha,10
same,Post-emerge Herbicidal Activity CORN,[1]; 250 g ai/ha,15
same,Post-emerge Herbicidal Activity RICE,[2]; 63 g ai/ha,10
same,Post-emerge Herbicidal Activity RICE,[2]; 250 g ai/ha,20
same,Pre-emerge Herbicidal Activity ECHCG,[3]; rate 63 g ai/ha,0
same,Pre-emerge Herbicidal Activity ECHCG,[3]; rate 250 g ai/ha,0
same,Pre-emerge Herbicidal Activity CHEAL,[4]; rate 63 g ai/ha,100
same,Pre-emerge Herbicidal Activity CHEAL,[4]; rate 250 g ai/ha,100
same,Pre-emerge Herbicidal Activity ABUTH,[5]; rate 63 g ai/ha,80
same,Pre-emerge Herbicidal Activity ABUTH,[5]; rate 250 g ai/ha,30
same,Pre-emerge Herbicidal Activity IPOHE,[6]; rate 63 g ai/ha,10
same,Pre-emerge Herbicidal Activity IPOHE,[6]; rate 250 g ai/ha,20
same,Pre-emerge Herbicidal Activity SORHA,[7]; rate 63 g ai/ha,0
same,Pre-emerge Herbicidal Activity SORHA,[7]; rate 250 g ai/ha,0
same,Pre-emerge Herbicidal Activity DIGSA,[8]; rate 63 g ai/ha,0
same,Pre-emerge Herbicidal Activity DIGSA,[8]; rate 250 g ai/ha,40
same,Pre-emerge Herbicidal Activity SETVI,[9]; rate 63 g ai/ha,0
same,Pre-emerge Herbicidal Activity SETVI,[9]; rate 250 g ai/ha,30
same,Pre-emerge Herbicidal Activity CASOB,[10]; rate 63 g ai/ha,10
same,Pre-emerge Herbicidal Activity CASOB,[10]; rate 250 g ai/ha,30
same,Pre-emerge Herbicidal Activity AMARE,[11]; rate 63 g ai/ha,100
same,Pre-emerge Herbicidal Activity AMARE,[11]; rate 250 g ai/ha,100
same,Pre-emerge Herbicidal Activity CORN,[12]; rate 63 g ai/ha,0
same,Pre-emerge Herbicidal Activity CORN,[12]; rate 250 g ai/ha,0
same,Pre-emerge Herbicidal Activity RICE,[13]; rate 63 g ai/ha,20
same,Pre-emerge Herbicidal Activity RICE,[13]; rate 250 g ai/ha,40
same,Post-emerge Herbicidal Activity ECHCG,[14]; 63 g ai/ha,0
same,Post-emerge Herbicidal Activity ECHCG,[14]; 250 g ai/ha,20
same,Post-emerge Herbicidal Activity CHEAL,[15]; 63 g ai/ha,95
same,Post-emerge Herbicidal Activity CHEAL,[15]; 250 g ai/ha,100
same,Post-emerge Herbicidal Activity ABUTH,[16]; 63 g ai/ha,100
same,Post-emerge Herbicidal Activity ABUTH,[16]; 250 g ai/ha,100
same,Post-emerge Herbicidal Activity IPOHE,[17]; 63 g ai/ha,100
same,Post-emerge Herbicidal Activity IPOHE,[17]; 250 g ai/ha,85
same,Post-emerge Herbicidal Activity SORHA,[18]; 63 g ai/ha,0
same,Post-emerge Herbicidal Activity SORHA,[18]; 250 g ai/ha,10
same,Post-emerge Herbicidal Activity DIGSA,[19]; 63 g ai/ha,10
same,Post-emerge Herbicidal Activity DIGSA,[19]; 250 g ai/ha,5
same,Post-emerge Herbicidal Activity SETVI,[20]; 63 g ai/ha,10
same,Post-emerge Herbicidal Activity SETVI,[20]; 250 g ai/ha,10
same,Post-emerge Herbicidal Activity AMARE,[21]; 63 g ai/ha,95
same,Post-emerge Herbicidal Activity AMARE,[21]; 250 g ai/ha,90
same,Post-emerge Herbicidal Activity CASOB,[22]; 63 g ai/ha,70
same,Post-emerge Herbicidal Activity CASOB,[22]; 250 g ai/ha,95
